In the test the test system is P. acnes ATCC 6919. The test is described as follows: Minimum Inhibitory Concentration (MIC), broth microdilution. The format is cell-based. The note with it: 37° C., 2 days, anaerobic, tested 0.0078 to 16 μg/mL. How it is done:
The antimicrobial activity of minocycline was assessed by measuring the Minimum Inhibitory Concentration (MIC). MIC was also assessed for several other materials and combinations and relative MIC values were calculated as multiples of the minocycline MIC value. […] Test material was dissolved in water, diluted by two-fold serial titrations for a total of 11 concentrations. A 96-well plate was prepared by adding 196 μL of broth medium seeded with a strain of P. acnes ATCC 6919 bacteria. A 4 μL aliquot of a test substance dilution was added to each well to bring the total volume in each well to 200 μL. The test substance concentrations tested ranged from 0.0078 to 16 μg/mL. Plates were incubated at 37° C. for 2 days in anaerobic conditions. 96-well plates were read by a TECAN […] F50 ELISA microplate reader (Männedorf, Switzerland) in absorbance mode with a wavelength of 620 nm. Each well was evaluated for whether growth occurred or was inhibited. The lowest concentration for which growth was inhibited was recorded as the MIC. Each test substance was evaluated in duplicate.

For `[Cl-].[Cl-].[Mg+2]` [Magnesium chloride, magnesium chloride], the MIC value result is listed as “did not inhibit growth at any of the concentrations tested”.

For the origin of these results see patent US10391108B2 (BioPharmX, Inc., priority 2015, dated 2019).
